Experimental data published in publication PMC5770468, “Cardiac glycoside/aglycones inhibit HIV-1 gene expression by a mechanism requiring MEK1/2-ERK1/2 signaling” (Scientific Reports, 2018).

System: HeLa rtTA-HIV(Gag-GFP) cells
Format: cell-based, human
Details: 220 nM
Protocol: Using the same methods and conditions described for HeLa rtTA-HIV-ΔMls cells, HeLa rtTA-HIV(Gag-GFP) cells were seeded in 48-/12-well plates and pretreated with/without pathway inhibitor prior to treatment with drug/compounds and Dox. Equal concentrations of DMSO were present in each experiment. HIV-1 gene expression was determined by detecting Gag-GFP fluorescence in cells by plate scans using a Typhoon Imager 9400 (Amersham Biosciences) or Typhoon FLA 9400 (GE) on ImageQuant, cell lysates by SDS-PAGE captured on ChemiDoc MP, or cell lysates by p24^CA ELISA. Before quantification, cells were washed with warm PBS and either scanned live (and harvested for protein analyses) or fixed in 3.7% paraformaldehyde/formaldehyde-PBS for subsequent analyses. Data from cell scans and SDS-PAGEs were quantitated using ImageJ and Image Lab software, respectively. To determine which pathway signal was used by a CS to inhibit HIV-1 gene expression, cells treated with CS were pre-treated with a specific pathway inhibitor and monitored for recovery of Gag-GFP expression. […] In parallel, the cell viability of each pathway inhibitor and CS treatment combination were monitored by cell density staining of fixed cells with 2% methylene blue (BioBasic, #MB0342) in 50% ethanol and read at OD664 on a TECAN Infinite® 200 PRO or Biotek Cytation5. […]

SMILES: COc1ccc(C[C@H]2NC[C@H](O)[C@H]2OC(C)=O)cc1 [anisomycin, Anisomycin]
- effect on cell density: little to no effect
